Assay results: ChEMBL document CHEMBL6177993, “De Novo 3-(Phenylcarbamoyl) Benzoate Analogues: Efficacy against Multidrug-Resistant S. aureus and Elucidation of the Biodistribution Profile” (J Med Chem, 2025)
Values after ≈ are worked out from the molar mass of the structure shown. Active and inactive are the calls of the source. The rule behind the calls is not given here.

Legend:
Cell membrane = assay: Disruption of cell membrane in Staphylococcus aureus ATCC 29213 assessed as increase in red fluorescence at 5 to 10 times MIC measured after 4 hrs by DAPI and PI staining based fluorescence microscopic analysis
Staphylococcus aureus [1] = assay: Bactericidal activity against Staphylococcus aureus ATCC 29213 at 4 to 8 time MIC measured within 60 mins by time-kill assay; format: functional, organism-based
Staphylococcus aureus [2] = assay: Antibacterial activity against methicillin-resistant Staphylococcus aureus NRS 129 assessed as reduction in bacterial growth measured after 18 to 24 hrs by broth microdilution method; format: functional; settings: time 18-24 hrs
Staphylococcus aureus [3] = assay: Antibiofilm activity in Staphylococcus aureus ATCC 29213 assessed as disruption of preformed biofilm at 1 times MIC measured after 24 hrs by crystal violet staining based assay relative to control; format: functional
Staphylococcus aureus [4] = assay: Antibacterial activity against vacomycin-resistant Staphylococcus aureus VRS 12 assessed as reduction in bacterial growth measured after 18 to 24 hrs by broth microdilution method; format: functional; settings: time 18-24 hrs
Staphylococcus aureus [5] = assay: Antibacterial activity against Staphylococcus aureus ATCC 29213 infected in female BALB/c mouse skin infection model assessed as log reduction in bacterial load at 10 times MIC pre-infected with bacteria followed by compound addition and measured after 24 hrs; format: functional
Staphylococcus aureus [6] = assay: Inhibition of biofilm in Staphylococcus aureus ATCC 29213 at 2 times MIC measured after 12 hrs by crystal violet staining based analysis relative to control; format: functional
Staphylococcus aureus [7] = assay: Antibacterial activity against Staphylococcus aureus ATCC 29213 assessed as reduction in bacterial growth measured after 18 to 24 hrs by broth microdilution method; format: functional; settings: time 18-24 hrs
Staphylococcus aureus [8] = assay: Antibiofilm activity in Staphylococcus aureus ATCC 29213 assessed as disruption of preformed biofilm at 40 times MIC measured after 24 hrs by crystal violet staining based assay relative to control; format: functional
Staphylococcus aureus [9] = assay: Antibacterial activity against Staphylococcus aureus ATCC 29213 infected in female BALB/c mouse skin infection model assessed as appearance of smooth dorsal skin at 10 times MIC pre-infected with bacteria followed by compound addition and measured after 24 hrs; format: functional, organism-based
[10] = Solubility of the compound in distilled water; format: physicochemical; settings: buffer
Klebsiella pneumoniae = assay: Antibacterial activity against Klebsiella pneumoniae BAA 1705 assessed as reduction in bacterial growth measured after 18 to 24 hrs by broth microdilution method; format: functional; settings: time 18-24 hrs

With `O=C(O)c1cccc(C(=O)Nc2c(C(c3ccc(F)cc3)c3ccc(F)cc3)cc(Cl)cc2C(c2ccc(F)cc2)c2ccc(F)cc2)c1` as the molecule, how does the Activity (Cell membrane) read?
Its Activity is “Active”.

What about the Activity (Staphylococcus aureus [1]) of the same molecule?
Its Activity is “Active”.

What about the MIC (Staphylococcus aureus [2]) of the same molecule?
The MIC was 2 µg/mL (≈ 2.94 µM).

What about the Activity (Staphylococcus aureus [3]) of the same molecule?
Its Activity is 7.29%.

What about the MIC (Staphylococcus aureus [4]) of the same molecule?
Its MIC is 2 µg/mL (≈ 2.94 µM).

What about the Activity (Staphylococcus aureus [5]) of the same molecule?
Its Activity is 0.8 log10CFU/ml.

And the “inhibition (INH)” value (Staphylococcus aureus [6])?
The value was 95%.

And the MIC (Staphylococcus aureus [7])?
Its MIC is 1 µg/mL (≈ 1.47 µM).

And the Activity (Staphylococcus aureus [8])?
Its Activity is 31.47%.

What about the Activity (Staphylococcus aureus [9]) of the same molecule?
The Activity was “Active”.

And the solubility [10]?
The solubility was “Insoluble”.

And the MIC (Klebsiella pneumoniae)?
Its MIC is > 64 µg/mL.
